Results: patent US8778959B2, “AZA-bridged ring-fused indoles and indolines” (AbbVie Inc., priority 2009, dated 2014)

Legend:
[1] = test system: primary postnatal (P0) cortical cells; assay: Neurite Outgrowth Assay (Aβ1-42-treated cortical cells); assay type: cell-based, rat; conditions: n = 1; for % Attenuation Effect of 5 μM Aβ 1-42: 5 μM Aβ1-42; for Emax: Rattus norvegicus, maximum response relative to 300 nM dimebolin, at the concentration given, read-out: Maximum Effect (of % 300 nM Dimebolin) at Concentration; for Concentration (nM) of Maximum Effect: test compound concentration at which the maximum response was noted
Method: In addition to PC12 cells, other cellular model systems may also be used. Rat cortical cells can be cultured and prepared for high content microscopy analysis as previously described (Hu, M.; Schurdak, M. E.; et al. High content screen microscopy analysis of Aβ1-42-induced neurite outgrowth reduction in rat primary cortical neurons: Neuroprotective effects of α7 neuronal nicotinic acetylcholine receptor ligands. Brain Res. 2007, 1151, 227-235). Briefly, cortical cell cultures are plated at density of 5×10^5 cells/mL onto poly-D-lysine coated 96-well plates and maintained in a cell incubator at 37° C. with 5% CO2. Experiments are performed using 6-7 day-old cortical cell cultures by treating with test compounds. In some experiments, the effect of test compounds on reversing Aβ toxicity can also be measured (Hu, M.; Schurdak, M. E.; et al. High content screen microscopy analysis of Aβ1-42-induced neurite outgrowth reduction in rat primary cortical neurons: Neuroprotective effects of α7 neuronal nicotinic acetylcholine receptor ligands. Brain Res. 2007, 1151, 227-235). For assessment of neuroprotective effects, cells are first pretreated with test compounds for about 5 hours. Medium is then replaced with the medium containing freshly prepared about 5 μM Aβ1-42 peptide in the absence or presence of the test compounds for 3 days. The untreated group contains the same percentage of vehicle (DMSO) as in the treatment groups. Cells are fixed with approximately 4% paraformaldehyde containing 0.5% Hoechst 33342 for about 15 minutes, followed by three washes using PBS (pH 7.4) and blocked with 10% donkey serum in PBS for 1 hour at room temperature. The cells are then incubated overnight at about 4° C. with mouse anti-tubulin monoclonal antibody (1:100) for staining neurons and rabbit anti-GFAP (1:1000) for staining glia. In the next day, cells are incubated with FITC-labeled anti-mouse and TRITC-labeled anti-rabbit antibodies (1:1000) for about 1 hour at room temperature. After fixing and staining the cells, nuclei (360/400 nm excitation and 465/300 nm emission filters), neuron (475/350 nm excitation and 535/400 nm emission filters) and glial cell (535 nm excitation and 610 nm emission filters) images are collected using the ImageExpress Micro automatic fluorescent microscopy system (Molecular Devices, Sunnyvale, Calif.) employing a Nikon 10× Plan Fluor objective and Cool Snap HQ CCD camera. The Neurite Outgrowth module in the MetaMorph Imaging software can be used to automatically count total cell number, number of neuron cells, and the extent of neurite outgrowth.
The neurite outgrowth observed for untreated cells is set to 100% response. Treatment of cells with compounds prior to and concomitantly with Aβ1-42 gave a neuroprotective effect with neurite outgrowth maintained or enhanced relative to untreated cells.

[2] = test system: SK-N-SH human neuroblastoma cells; assay: Serum Deprivation/JC-1 Mitochondrial Membrane Potential (MMP) Assay; assay type: cell-based; conditions: Homo sapiens, SK-N-SH, 18 h; for Emax: percent maximal intensity in JC-1 ratio normalized to peak value for 10 μM dimebolin, read-out: JC-1 max %; for EC50: serum deprivation ~18 hours, JC-1 ratio normalized to peak value for 10 μM dimebolin, single curve fit to mean of n=2-3
Method: SK-N-SH human neuroblastoma cells obtained from American Type Culture Collection (Rockville, Md.) were maintained in the log phase of growth in Minimal Essential Media (MEM), 10% heat inactivated fetal calf serum and 100 units/mL antibiotic-antimycotic (AA). Cells were cultured and maintained in a humidified incubator at 37° C. under 5% CO2 and 95% air. Cells were trypsinized (0.25%) and subcultured every 3 days and used from 15-18 passages. All cell culture supplies were obtained from Invitrogen (Carlsbad, Calif.).
SK-N-SH cells were plated 2-3 days in advance at a concentration of 50,000 cells/well onto collagen coated black-walled 96 well plates (Becton-Dickinson, Bedford, Mass.) in a total volume of 200 μL. On day of experimental treatment, the media containing serum was aspirated from each well and rinsed once with MEM/1% AA without serum. The cells then were incubated overnight in 100 μL of MEM/1% AA (no serum) with and without dimebolin or novel chemical entities overnight for ˜18 hours. The following day, JC-1 dye (5,5′,6,6′-tetrachloro-1,1′,3,3′-tetraethylbenzimidazolcarbocyanide) was diluted 1:10 into MEM media according to the JC-1 Mitochondrial Membrane Potential Assay Kit: (Cayman Chemical Company, Ann Arbor, Mich.) and then 10 μL of the JC-1 dye solution was added to each well. The plates were centrifuged for 5 minutes at 400×g at room temperature followed by 35 minute incubation at 37° C. The plates were washed twice with 200 μL of provided Assay Buffer followed an addition of 100 μL of Assay Buffer to each well. The plates were read with an excitation and emission of 560 nm and 595 nM for red fluorescence and with an excitation and emission of […] and 535 nM for green fluorescence to determine the final JC-1 value taking the red to green fluorescence ratio. This assay is based on change in mitochondrial membrane potential (MMP) using this lipophilic cationic dye, JC-1, by monitoring the changes in the ratio of red to green fluorescence as the MMP depolarizes. This change in MMP reflects the health of the cell with healthy, viable cells have a high JC-1 ratio and high MMP whereas apoptotic, unhealthy cells have a low JC-1 ratio or low MMP.
For the ability of compounds to reverse the stress due to serum deprivation and increase the JC-1 ratio, the percent maximal intensity in JC-1 ratio was normalized to that induced by the peak value for 10 μM dimebolin and plotted against the compound concentration to calculate EC50 values and to control for plate-to-plate variability. Concentration-response data were analyzed using GraphPad Prism (San Diego, Calif.); the EC50 values were derived from a single curve fit to the mean data of n=2-3, in duplicates.
All compounds were dissolved in dimethyl sulfoxide at 10 mM stock solutions and tested at a concentration that the dimethyl sulfoxide levels never exceeded 1%.

[3] = test system: mouse model of multiple sclerosis; conditions: in vivo administration; cited from earlier work
[4] = test system: patients with mild-to-moderate Alzheimer's disease; conditions: cited from earlier work
[5] = test system: primary rat cortical neurons; conditions: comparable to that evoked by BDNF; cited from earlier work

Structure (SMILES) | Emax [2] | EC50 [2] | further results
c1ccc(COc2cccc3c4c([nH]c23)C[C@H]2CCC[C@@H]4N2)cc1 (stereo in doubt) [Example 9, (7R*,11S*)-4-(benzyloxy)-6,7,8,9,10,11-hexahydro-5H-7,11-epiminocycloocta[b]indole] | 130% | 6.03 µM | % Attenuation Effect of 5 μM Aβ 1-42 [1]: 45 (n = 1) %; Emax [1]: 115%; Concentration (nM) of Maximum Effect [1]: 0.03 nM
O=C1C=C(c2ccccc2)C(=O)N1c1cccc(Cl)c1 [1-(3-chlorophenyl)-3-phenyl-pyrrole-2,5-dione] | – | – | Development of the disease [3]: significantly prevented the development of the disease
Cc1ccc(/C=C/c2cccc3c4c([nH]c23)CC2CCC4N2C)cn1 (centres unmarked) [Example 1, 11-methyl-4-[(E)-2-(6-methylpyridin-3-yl)vinyl]-5,6,7,8,9,10-hexahydro-7,10-epiminocyclohepta[b]indole] | 214% | 3.19 µM | % Attenuation Effect of 5 μM Aβ 1-42 [1]: 27 (n = 1) %; Emax [1]: 103%; Concentration (nM) of Maximum Effect [1]: 0.3 nM
Cc1ccc(-c2cccc3c4c([nH]c23)CC2CCC4N2C)cn1 (centres unmarked) [Example 33, 11-methyl-4-(6-methylpyridin-3-yl)-5,6,7,8,9,10-hexahydro-7,10-epiminocyclohepta[b]indole] | 158% | 5.08 µM | –
CN1C2CCC1c1c([nH]c3c(-c4cnc5ccccc5c4)cccc13)C2 (centres unmarked) [Example 34, 11-methyl-4-(quinolin-3-yl)-5,6,7,8,9,10-hexahydro-7,10-epiminocyclohept[b]indole] | 189% | 1.34 µM | –
c1cncc(-c2cccc3c4c([nH]c23)CC2CCC4N2)c1 (centres unmarked) [Example 35, 4-(pyridin-3-yl)-5,6,7,8,9,10-hexahydro-7,10-epiminocyclohepta[b]indole] | 87.2% | 11 µM | –
COC(=O)N1C2CCC1c1c([nH]c3c(-c4cnc5ccccc5c4)cccc13)C2 (centres unmarked) [Example 36, methyl 4-(quinolin-3-yl)-5,6,7,8,9,10-hexahydro-7,10-epiminocyclohepta[b]indole-11-carboxylate] | 140% | 1.13 µM | –
Cc1ccc(-c2cccc3c4c([nH]c23)CC2CNC4C2)cn1 (centres unmarked) [Example 37, 7-(6-methylpyridin-3-yl)-1,2,3,4,5,6-hexahydro-1,4-methanoazepino[4,3-b]indole] | 131% | 7.33 µM | –
Cc1ccc(C#Cc2cccc3c4c([nH]c23)CC2CNC4C2)cn1 (centres unmarked) [Example 38, 7-[(6-methylpyridin-3-yl)ethynyl]-1,2,3,4,5,6-hexahydro-1,4-methanoazepino[4,3-b]indole] | 120% | 5.88 µM | –
Cc1ccc2c(c1)c1c(n2CCc2ccc(C)nc2)CCN(C)C1 [dimebolin, 2,3,4,5-tetrahydro-2,8-dimethyl-5-[2-(6-methyl-3-pyridinyl)ethyl]-1H-pyrido[4,3-b]indole] | – | – | Clinical course of disease (ADAS-Cog, improvement over baseline) ([4]; 20 mg three times a day (60 mg/day)): significant improvement; Most frequent adverse event ([4]; reported clinical studies): dry mouth; Neurite outgrowth [5]: increase neurite outgrowth
